One data set concerns the target T1, TrxR/Trx-1 (Homo sapiens, UniProt P10599).
T1 sequence (P10599 2-105 limits assumed): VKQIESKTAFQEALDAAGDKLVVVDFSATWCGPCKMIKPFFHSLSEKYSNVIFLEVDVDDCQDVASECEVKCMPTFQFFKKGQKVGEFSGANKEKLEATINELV
Put plainly: Ellman test, inhibition of TrxR/Trx-1 activity. In kind it is biochemical. To be noted: read-out: TrxR/Trx-1 IC50. From the text:
Ellman Test—Inhibitory Effect of 6-dithio-substituted-2′-deoxyguanosine Derivative Analogues on TrxR/Trx-1 Activity
A TrxR/TR experiment based on the Ellman reaction was used to determine the inhibitory activity of candidate compounds. Ellman reaction is that 5,5′-dithiobis (2-nitrobenzoic acid) (DTNB) reacts with sulfhydryl (—SH) to form a yellow substance with absorption at 412 nm. The increase of absorption can be equivalent to the decrease of NADPH mediated by TrxR, thus further judging the activity of TrxR/Trx-1. All experiments were carried out on 96-well plates. Before the start of the enzyme reaction, five groups of corresponding test compound stock solutions with different concentrations were prepared. In the TrxR/Trx-1 reaction, a total volume per well was 60 μL, including 100 mM HEPES, 5 mM EDTA (HE buffer, pH 7.5), 1 mM NADPH, 1.0 μM TrxR, 0.8 μM Trx-1, 2.5 mg/mL bovine insulin and the required concentration of compounds to be tested. No compound to be tested was added to the control group. No compound to be tested, TrxR and Trx-1 were added in the blank group. The plate was shaken on an oscillator for 30 seconds to fully mix the reactants. After incubation at 37° C. for 30 min, 100 μL of the prepared mixture containing 6 M guanidine hydrochloride, 50 mm Tris and 10 mm DTNB was added to terminate the reaction. After 15 minutes of incubation, the absorbance was measured at 412 nm. Finally, TrxR/Trx-1 activity %=(Atest−Akb)/(Acontrol−Akb), that is, the relative percentage of TrxR/Trx-1 activity was the activity inhibited by adding 2′-deoxyguanosine derivatives relative to the activity without 2′-deoxyguanosine derivatives. The data were fitted into a concentration response curve with a variable slope, and the IC50 value was calculated from the curve.
In general terms: Ellman's reagent forms a yellow product with free thiols.

The subject of data set [1] is human gastric cancer cells BGC. As to the kind of experiment: MTT assay, tumor cell growth inhibition, BGC. Particulars: 48 hours. Format: cell-based. From the text:
(§1) MTT Assay—Inhibitory Effect of 6-dithio-substituted-2′-deoxyguanosine Derivatives on Tumor Cell Growth
(§2) We measured the tumor cell growth inhibitory activity of candidate compounds by MTT assay. Human tumor cells in logarithmic growth phase were digested with 0.25% pancreatin for a certain time, centrifuged, re-suspended and counted with a blood cell counting plate to prepare a cell suspension, and the cell suspension was adjusted to 1.0×10^4-1×10^5 cells/mL. The cell suspension was inoculated into a 96-well culture plate, 100 μL per well, and cultured in an incubator with saturated humidity, 37° C. and 5% CO2 for 24 hours until the cells completely adhered to the wall. The test compound was diluted to the required concentration with a complete medium, the complete medium of the 96-well culture plate inoculated with human tumor cells was sucked out, a medicament-containing medium was added, 100 μL per well, the final concentration of DMSO was less than 0.1%, and the culture plate was put in an incubator for 48 hours. 10 μl of MTT was added to each well of the 96-well plate, and the culture was continued for 4 h. The culture was stopped and the culture solution in the well was carefully sucked off. 150 μL DMSO was added to each well, and shaken at a low speed for 10 min on a shaking table, so that the crystal was fully dissolved. The absorbance of each well was measured at OD 570 nm of an enzyme-linked immunosorbent assay instrument. At the same time, zeroing wells (the culture medium, MTT, dimethyl sulfoxide) and control wells (cells, a drug dissolution medium with the same concentration, a culture solution, MTT, dimethyl sulfoxide) were set up, and the cell growth inhibitory activity was calculated with the corresponding solvents as the control. 3-6 multiple wells in each group were set up with repetition of several times. Cell viability of control=(Adrug group−Azeroing well)/(Acontrol well−Azeroing well)*100%. Drawing was drawn, the data were fitted into a concentration response curve with a variable slope, and IC50 value was calculated from the curve.
On the technique in general: Tetrazolium dyes change colour on reduction, which living cells bring about.

In data set [2] the test system is human non-small cell lung cancer A549. As to the kind of experiment: MTT assay, tumor cell growth inhibition, A549. In kind it is cell-based. Particulars: 48 hours.
Text: as §1, §2

For data set [3], the system named is human melanoma cell A375 tumor. As to the kind of experiment: Human melanoma cell A375 tumor-bearing mouse model, antitumor effect. Format: in vivo, nude mice. To be noted: compound D 10 mg/kg, DTIC 20.4 mg/kg (4 times molar), 6-thio-dG+PX12 at twice the molar amount. As for the experimental part:
(§3) 2) Human Melanoma Cell A375 Tumor-Bearing Mouse Model
(§4) We further studied the inhibitory effect of the compound D on human malignant melanoma by using A375 tumor-bearing mouse model. The method was basically the same as above. Dacarbazine (DTIC) is the first-line drug for melanoma. The designed administration groups were: compound D 10 mg/kg group; 6-thio-dG+PX12 combined drug group (the dose is equivalent to twice the molar amount of the compound D); DTIC 20.4 mg/kg group (the dose is equivalent to 4 times the molar amount of the compound D) and blank solvent group.

The test system of data set [4] is human colon cancer cells HT29. As to the kind of experiment: MTT assay, tumor cell growth inhibition, HT29. Particulars: HT-29, 48 hours. Format: cell-based.
Text: as §1, §2

Data set [5] in a line: A375 tumor-bearing mouse model, body weight, toxicity and blood biochemical indexes. To be noted: compound D 10 mg/kg. In kind it is in vivo. As for the experimental part: as §3, §4

Consider one compound from patent US11247994B2, “6-dithio-substituted-2′-deoxyguanosine compound, preparation method thereof and use thereof” (ZHEJIANG UNIVERSITY, priority 2018, dated 2022).

`CC(C)SSc1nc(N)nc2c1ncn2[C@H]1C[C@H](O)[C@@H](CO)O1` [D, 6-(isopropyldithio)-2′-deoxyguanosine]: the IC50 is 4.26 µM at TrxR/Trx-1, 11.7 µM in data set [1], 31.1 µM in data set [2] and 4.24 µM in data set [4]. For the same compound, the “Antitumor effect (tumor volume) compared with controls” value in data set [3] is reported as “significantly higher than that of DITC”. For the same compound, the Body weight entry in data set [5] was “after 13 days of administration, the body weight was significantly higher than that of DITC group, 6-thio-dG and PX-12 combination group”. Further, the “Toxicity compared with 6-thio-dG and PX-12 combination” value in data set [5] (combination at twice the molar amount) is “lower toxicity than the combined drug group”.
